Marks after values point to notes of the source that are not given here.

These results are taken from US20200331950A1, “SGLTS INHIBITOR AND APPLICATION THEREOF” (SHANDONG DANHONG PHARMACEUTICAL CO., LTD., priority 2018, published 2020).

One data set has as its target T1, Human-SGLT2 (Homo sapiens, UniProt P31639).
T1 sequence (P31639 1-672): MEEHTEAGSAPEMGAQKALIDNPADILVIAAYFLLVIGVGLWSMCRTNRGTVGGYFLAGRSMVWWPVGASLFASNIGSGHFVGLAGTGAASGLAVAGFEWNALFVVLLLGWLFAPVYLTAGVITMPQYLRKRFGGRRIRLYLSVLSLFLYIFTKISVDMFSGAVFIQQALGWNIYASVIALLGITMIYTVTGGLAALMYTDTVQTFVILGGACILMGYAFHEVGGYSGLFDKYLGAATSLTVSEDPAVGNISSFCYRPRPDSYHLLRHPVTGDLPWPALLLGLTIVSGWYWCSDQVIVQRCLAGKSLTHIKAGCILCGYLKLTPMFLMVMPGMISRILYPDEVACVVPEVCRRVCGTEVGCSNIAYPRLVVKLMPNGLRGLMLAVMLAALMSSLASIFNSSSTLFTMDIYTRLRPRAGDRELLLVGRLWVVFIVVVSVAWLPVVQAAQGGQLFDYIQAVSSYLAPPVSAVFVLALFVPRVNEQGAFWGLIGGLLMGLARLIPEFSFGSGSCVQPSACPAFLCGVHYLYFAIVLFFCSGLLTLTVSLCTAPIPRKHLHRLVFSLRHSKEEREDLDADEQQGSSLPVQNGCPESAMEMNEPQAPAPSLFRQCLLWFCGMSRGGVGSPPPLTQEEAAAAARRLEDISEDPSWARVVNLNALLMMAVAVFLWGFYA
Nature of the data set: SGLT2 glucose transport test ([14C]-labeled methyl a-D-glucopyranoside uptake). Format: cell-based. The following applies: cells stably expressing Human-SGLT2; 37° C., 2 hours. Here is the method: Biological Activity Experiment 2: SGLT2 Glucose Transport Test.
(§1) 1. Purpose of the Experiment:
The effect of the compound on the glucose transport activity of SGLT2 transporter was detected by measuring the amount of [^14C]-labeled glucose entering cells with high expression of Human-SGLT2.
The cells stably expressing Human-SGLT2 were constructed by Wuxi AppTec(Shanghai) Co., Ltd. SGLT2 cells were laid in 96-well cell culture plate (Greiner) and cultured overnight in 5% CO2 environment at 37° C.
2.2. SGLT2 Glucose Transport Test.
(§2) 1) Experimental buffer, including: 10 mM 4-hydroxyethylpiperazineethanesulfonic acid (HEPES), 1.2 mM magnesium chloride (MgCl2), 4.7 mM potassium chloride (KCl), 2.2 mM calcium chloride (CaCl2) and 120 mM sodium chloride (NaCl).
2) Stop buffer, including: 10 mM 4-hydroxyethylpiperazineethanesulfonic acid (HEPES), 1.2 mM magnesium chloride (MgCl2), 4.7 mM potassium chloride (KCl), 2.2 mM calcium chloride (CaCl2), 120 mM sodium chloride (NaCl) and 1 μM LX4211.
3) Compounds were serially diluted in 100% dimethyl sulfoxide (DMSO) starting at 10 uM and make a 5-folds, 8 points serials compound dilutions.
4) 6 μM [^14C]-labeled methyl a-D-lucopyranosid was prepared with the experimental buffer.
5) The cells were treated with 49 uL of the experimental buffer, 1 μL of the gradient diluted compound and 50 μL of the 6 μM [^14C]-labeled methyl a-D-lucopyranosid solution at 37° C. for 2 hours.
6) The solution was sucked out from holes, and the cells were rinsed with the stop buffer for 3 times.
7) The cells were lysed with 50 ul of 10% sodium hydroxide solution, the cell lysate was sucked into a scintillation tube, into which 2 mL scintillation solution was then added.
8) The data were read with an isotope detector Tricarb.
9) The IC50 value of the tested compound was obtained by the calculation formula: log(inhibitor) vs. response—Variable slope, using GraphPad Prism 5.0 software.

The subject of data set [1] is SD rats. Nature of the data set: Oral glucose tolerance test (OGTT) in rats, second time. It is filed as in vivo. The settings on record: second study, male SD rats, 10 mg/kg single intragastric administration. As to the method:
Study on the In Vivo Efficacy of Oral Glucose Tolerance Test (OGTT) in Rats for the Second Time:
(§3) The experimental animals were allowed to adapt to the environment in the animal room for one week after they arrived.
(§4) The animals fasted in the metabolic cage for 18 hours, then were given drugs or vehicle (2 ml/kg) according to the above table, and subsequently were immediately given 50% glucose solution (2 g/kg, 4 ml/kg).
(§5) 2 hours after the administration of glucose solution, feed intake was restored. Blood samples were taken at 0 min, 15 min, 30 min, 45 min, 60 min and 120 min respectively, and urine samples were collected at 0-24 h to test blood glucose, urine glucose (mg/200 g) and urine volume respectively.
(§6) All values are represented as averages. Statistical analysis was performed using Graphpad Prism 6 one-way analysis of variance and Tukey's multiple comparison test. P value of less than 0.05 is considered statistically significant.

The subject of data set [2] is SD rats. Description: Oral glucose tolerance test (OGTT) in rats, first time. Format: in vivo. The settings on record: first study, male SD rats, 10 mg/kg single intragastric administration. As to the method: Experimental Example 3. Study on In Vivo Efficacy of Oral Glucose Tolerance Test (OGTT) in Rats: Study on the In Vivo Efficacy of Oral Glucose Tolerance Test (OGTT) in Rats for the First Time
as §3, §4, §5, §6

A short description of data set [3]: In vivo pharmacokinetics in rats. The settings on record: male SD rats. From the text: Study on the In Vivo Pharmacokinetics in Rats
The purpose of the experiment: Male SD rats were used as test animals and were given a single administration to determine the plasma concentration of the compound and evaluate the pharmacokinetic behavior.
Experimental method: Six healthy adult male SD rats were divided into 2 groups, with 3 rats in an intravenous injection group and 3 rats in an oral administration group. In the intravenous injection group, the test compound was mixed with an appropriate amount of vehicle (10% N-methyl pyrrolidone (NMP)/10% polyethylene glycol-15 hydroxystearate (available from solutol)/80% water), then vortexed and sonicated to prepare 0.2 mg/mL clear solution, which was filtered by microporous membrane. In the oral administration group, 10% N-methyl pyrrolidone (NMP)/10% polyethylene glycol-15 hydroxy stearate (available from solutol)/80% water was used as a vehicle and mixed with the test compound, then vortexed and sonicated to prepare 0.40 mg/mL clear solution. The rats were given intravenous administration at a dose of 1 mg/kg or oral administration at a dose of 2 mg/kg. Whole blood was collected at a certain period of time to prepare the plasma. The drug concentration of the plasma was analyzed by LC-MS/MS method, and the pharmacokinetic parameters were calculated using Phoenix WinNonlin software (Pharsight Company, USA).

A further data set deals with T2, Human-SGLT1 (Homo sapiens, UniProt P13866).
T2 sequence (P13866 1-664): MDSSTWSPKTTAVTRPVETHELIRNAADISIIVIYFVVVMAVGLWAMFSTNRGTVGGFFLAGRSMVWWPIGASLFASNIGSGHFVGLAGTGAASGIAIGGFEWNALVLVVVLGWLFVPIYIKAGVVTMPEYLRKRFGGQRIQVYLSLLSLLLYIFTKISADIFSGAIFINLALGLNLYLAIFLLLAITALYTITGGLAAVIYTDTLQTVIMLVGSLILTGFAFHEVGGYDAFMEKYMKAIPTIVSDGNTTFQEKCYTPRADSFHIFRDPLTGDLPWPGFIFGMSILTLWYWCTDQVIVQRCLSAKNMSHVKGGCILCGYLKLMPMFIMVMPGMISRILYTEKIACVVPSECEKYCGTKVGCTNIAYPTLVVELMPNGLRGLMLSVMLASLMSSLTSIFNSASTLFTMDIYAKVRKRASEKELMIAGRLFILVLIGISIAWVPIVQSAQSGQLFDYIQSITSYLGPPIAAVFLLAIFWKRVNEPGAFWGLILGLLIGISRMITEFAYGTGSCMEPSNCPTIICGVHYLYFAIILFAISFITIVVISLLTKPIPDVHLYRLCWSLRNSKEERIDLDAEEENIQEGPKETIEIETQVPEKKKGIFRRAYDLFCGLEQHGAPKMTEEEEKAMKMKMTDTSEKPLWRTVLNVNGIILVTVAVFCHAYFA
Nature of the data set: SGLT1 glucose transport test ([14C]-labeled methyl a-D-glucopyranoside uptake). The settings on record: cells stably expressing Human-SGLT1; 37° C., 2 hours. Format: cell-based.
Text: Biological Activity Experiment 1: SGLT1 Glucose Transport Test.
as §1
The effect of the compound on the glucose transport activity of SGLT1 transporter was detected by measuring the amount of [′C]-labeled glucose entering cells with high expression of Human-SGLT1.
The cells stably expressing Human-SGLT1 were constructed by Wuxi AppTec(Shanghai) Co., Ltd. SGLT1 cells were laid in Cytostar-T (PerkinElmer) 96-well cell culture plate and cultured overnight in 5% CO2 environment at 37° C.
2.2. SGLT1 Glucose Transport Test.
as §2
2) Compounds were serially diluted in 100% dimethyl sulfoxide (DMSO) starting at 1 mM and make a 5-folds, 8 points serials compound dilutions.
3) 3 μM [′^4C]-labeled methyl a-D-glucopyranoside was prepared with the experimental buffer.
4) The cells were treated with 49 uL of the experimental buffer, 1 μL of the gradient diluted compound and 50 μL of the 3 μM [^14C]-labeled methyl a-D-lucopyranosid solution at 37° C. for 2 hours.
5) The data were read with an isotope detector Micro beta Reader.
6) The IC50 value of the tested compound was obtained by the calculation formula: log(inhibitor) vs. response—Variable slope, using GraphPad Prism 5.0 software.

The term IC50 denotes the concentration that gives 50% inhibition. The term bioavailability denotes the share of a dose that reaches the circulation, judged against a reference dose that is usually intravenous. Broadly, the Cmax is the maximum level reached in the sampled fluid or tissue. For the compound `CCOc1ccc(Cc2cc([C@@H]3O[C@H](SC)[C@@H](O)[C@H](O)[C@H]3O)ccc2Cl)cc1` [Sotagliflozin, reference compound], the IC50 against Human-SGLT2 stood at 1.15 nM. The OGTT blood glucose level AUC0-2 hr with SD rats [1] (glucose 2 g/kg) amounted to 790 mmol/L/min; in the data set on SD rats [2] (glucose 2 g/kg) it was 823 mmol/L/min. The Urine glucose level with SD rats [1] (urine 0-24 h) is recorded as 2843.2**** mg/200 g, BW; in the data set on SD rats [2] (urine 0-24 h), 2424.0**** mg/200 g, BW. Moreover, the Urine volume is 26.4**** mL/200 g, BW in the data set with SD rats [1] (urine 0-24 h) and 39.74**** mL/200 gBW in the data set on SD rats [2] (urine 0-24 h). In addition, the “Oral DNAUC (AUCPO/Dose)” value in data set [3] (oral 2 mg/kg) was 969 nM · h/mpk. In data set [3] (rat, plasma, intravenous 1 mg/kg or oral 2 mg/kg, read-out: Cl (clearance rate)), the clearance turned out to be 22.6 mL/min/kg. Moreover, the half-life in data set [3] (rat, plasma, intravenous 1 mg/kg or oral 2 mg/kg, read-out: T1/2 (half-life) (converted)) was 1.27 h. In data set [3] (rat, plasma, intravenous 1 mg/kg or oral 2 mg/kg, read-out: Vdss (distribution volume)), the Vd is 2.01 L/kg. Further, the bioavailability in data set [3] (rat, plasma, intravenous 1 mg/kg, oral 2 mg/kg, read-out: F % (oral bioavailability)) is 54.8%. The same compound registered a Cmax in data set [3] (rat, single administration, intravenous 1 mg/kg or oral 2 mg/kg, plasma) of 364 nM.
As for `CS[C@H]1O[C@@H](c2ccc(C)c(Cc3ccc(C4=CCC5(CC4)OCCO5)cc3)c2)[C@H](O)[C@@H](O)[C@@H]1O` [WXD002], the values for the IC50 against Human-SGLT1 and against Human-SGLT2 were 55.6 nM and 1.01 nM, respectively.
With `CS[C@H]1OC(c2ccc(C)c(Cc3ccc(C4=CCOCC4)cc3)c2)[C@H](O)[C@@H](O)[C@@H]1O` (stereo partly drawn) [WXD004], the figures for the IC50 on Human-SGLT1 and against Human-SGLT2 were 14.1 nM and 1.49 nM, respectively.
As to `CS[C@H]1OC(c2ccc(C)c(Cc3ccc(C4=CCCCC4)cc3)c2)[C@H](O)[C@@H](O)[C@@H]1O` (stereo partly drawn) [WXD005], the IC50 is 21.9 nM at Human-SGLT1 and 1.78 nM against Human-SGLT2.
For `CS[C@H]1O[C@@H](c2ccc(C)c(Cc3ccc(C4=CCC(F)(F)CC4)s3)c2)[C@H](O)[C@@H](O)[C@@H]1O` [WXD006], in that order: 39.2 nM and 1.02 nM.
For `CS[C@H]1O[C@@H](c2ccc(C)c(Cc3ccc(C4=CCOCC4)s3)c2)[C@H](O)[C@@H](O)[C@@H]1O` [WXD007], the figures for the IC50 on Human-SGLT1 and against Human-SGLT2 were 30.1 nM and 1.35 nM, respectively.
For `COc1ccc(C2O[C@H](SC)[C@@H](O)[C@H](O)[C@H]2O)cc1Cc1ccc(C2=CCC(F)(F)CC2)cc1` (stereo partly drawn) [WXD008], in that order: 17.2 nM and 5.4 nM.
For `CS[C@H]1OC(c2ccc(F)c(Cc3ccc(C4=CCC(F)(F)CC4)cc3)c2)[C@H](O)[C@@H](O)[C@@H]1O` (stereo partly drawn) [WXD009], in that order: 233 nM and 4.68 nM.
